pIC50: −log10 of the molar value.

The target of assay [1] is Human KDR (residues 790-1356) (Homo sapiens (Human), UniProt P35968). The assay can be described thus: Human KDR kinase assay, HTRF KinEase (Example B-2). The settings on record: protocol of Example B-2 (other compounds). In kind it is biochemical. In outline: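 Ten compound concentrations (3% DMSO final) were pre-plated, then KDR (790-1356) with biotinylated peptide in Mg/Mn/DTT buffer was added; ATP at Km (4.0 μM) started a 40 min room-temperature reaction. Detection used Eu-TK antibody and SA-XL665 in EDTA buffer; activity normalized to DMSO and reference inhibitor, IC50 by logistic fit.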
Chain of Human KDR (residues 790-1356) (P35968 790-1356): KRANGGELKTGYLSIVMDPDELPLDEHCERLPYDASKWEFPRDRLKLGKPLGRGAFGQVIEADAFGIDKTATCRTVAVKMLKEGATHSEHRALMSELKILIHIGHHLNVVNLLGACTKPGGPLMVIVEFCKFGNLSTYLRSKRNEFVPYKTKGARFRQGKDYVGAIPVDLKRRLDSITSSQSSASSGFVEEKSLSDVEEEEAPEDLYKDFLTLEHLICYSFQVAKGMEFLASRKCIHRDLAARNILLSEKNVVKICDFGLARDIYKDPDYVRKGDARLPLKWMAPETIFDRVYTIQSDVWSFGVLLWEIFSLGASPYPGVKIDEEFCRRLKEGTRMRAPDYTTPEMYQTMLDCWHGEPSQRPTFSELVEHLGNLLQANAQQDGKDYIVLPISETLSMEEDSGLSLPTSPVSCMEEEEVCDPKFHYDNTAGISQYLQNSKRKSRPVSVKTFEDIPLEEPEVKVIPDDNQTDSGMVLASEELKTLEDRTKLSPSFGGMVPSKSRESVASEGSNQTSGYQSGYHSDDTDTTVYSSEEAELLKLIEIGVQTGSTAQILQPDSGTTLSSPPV
(Time-resolved FRET reads energy transfer from a long-lived donor to a nearby acceptor.)

In assay [2] the target is Human MET (residues 956-1390) (Homo sapiens (Human), UniProt P08581). The assay can be described thus: Human Met kinase assay, HTRF KinEase (Example D-2). In kind it is biochemical. The following applies: protocol of Example D-2 (other compounds); read-out: c-Met IC50. The method, boiled down: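 MET kinase domain (956-1390), 0.1 ng/well, in buffer with 5 mM MgCl2, 1 mM DTT and 1 mM MnCl2, phosphorylated a biotinylated peptide at ATP Km for 40 min at RT; 10 concentrations, 3% DMSO final. EDTA-stopped HTRF read after 60 min; IC50 from a 4-parameter logistic fit.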
Chain of Human MET (residues 956-1390) (P08581 956-1390): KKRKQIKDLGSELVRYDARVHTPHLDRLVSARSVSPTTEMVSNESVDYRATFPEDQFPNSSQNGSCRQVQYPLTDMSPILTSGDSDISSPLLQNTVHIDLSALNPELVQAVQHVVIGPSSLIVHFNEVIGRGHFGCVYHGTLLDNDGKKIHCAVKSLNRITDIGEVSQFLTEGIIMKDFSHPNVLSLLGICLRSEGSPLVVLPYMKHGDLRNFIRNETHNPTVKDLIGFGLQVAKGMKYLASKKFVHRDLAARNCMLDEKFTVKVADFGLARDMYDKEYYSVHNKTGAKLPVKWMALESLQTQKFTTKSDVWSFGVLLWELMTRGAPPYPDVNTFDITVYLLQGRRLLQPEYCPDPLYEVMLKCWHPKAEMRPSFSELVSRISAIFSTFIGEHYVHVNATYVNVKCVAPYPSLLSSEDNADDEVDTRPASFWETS

Assay [3] has as its target KDR (phospho-KDR, VEGF165-stimulated HUVEC cells) (Homo sapiens (Human), UniProt P35968). The assay is described as follows: KDR autophosphorylation ELISA in HUVEC cells (Example G). In kind it is cell-based. The following applies: cellular activity; KDR autophosphorylation ELISA in HUVEC cells. The method, boiled down:
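Inhibition of VEGF165-driven KDR autophosphorylation is measured in primary human umbilical vein endothelial cells after 24 h serum deprivation. Compound preincubation lasts 1 h before a 5-minute challenge with 100 ng/mL ligand, and phosphorylated receptor is then measured by ELISA in the lysates.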

Assay [4] deals with Mer (phospho-Mer, MERTK-transfected 293A cells) (Homo sapiens (Human), UniProt Q12866). The assay is described as follows: Mer autophosphorylation ELISA in transient transfected 293A cells (Example H). The settings on record: cellular activity; Mer autophosphorylation ELISA in transient transfected 293A cells. In kind it is cell-based. The method, boiled down:
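IC50 from phospho-Mer ELISA of MERTK-transfected 293A cell lysates after 1 h treatment with serially diluted compound in serum-free medium.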
(In an ELISA, binding on a coated surface is turned into a signal by an enzyme label.)

Chain of Mer (phospho-Mer, MERTK-transfected 293A cells) (Q12866 21-999): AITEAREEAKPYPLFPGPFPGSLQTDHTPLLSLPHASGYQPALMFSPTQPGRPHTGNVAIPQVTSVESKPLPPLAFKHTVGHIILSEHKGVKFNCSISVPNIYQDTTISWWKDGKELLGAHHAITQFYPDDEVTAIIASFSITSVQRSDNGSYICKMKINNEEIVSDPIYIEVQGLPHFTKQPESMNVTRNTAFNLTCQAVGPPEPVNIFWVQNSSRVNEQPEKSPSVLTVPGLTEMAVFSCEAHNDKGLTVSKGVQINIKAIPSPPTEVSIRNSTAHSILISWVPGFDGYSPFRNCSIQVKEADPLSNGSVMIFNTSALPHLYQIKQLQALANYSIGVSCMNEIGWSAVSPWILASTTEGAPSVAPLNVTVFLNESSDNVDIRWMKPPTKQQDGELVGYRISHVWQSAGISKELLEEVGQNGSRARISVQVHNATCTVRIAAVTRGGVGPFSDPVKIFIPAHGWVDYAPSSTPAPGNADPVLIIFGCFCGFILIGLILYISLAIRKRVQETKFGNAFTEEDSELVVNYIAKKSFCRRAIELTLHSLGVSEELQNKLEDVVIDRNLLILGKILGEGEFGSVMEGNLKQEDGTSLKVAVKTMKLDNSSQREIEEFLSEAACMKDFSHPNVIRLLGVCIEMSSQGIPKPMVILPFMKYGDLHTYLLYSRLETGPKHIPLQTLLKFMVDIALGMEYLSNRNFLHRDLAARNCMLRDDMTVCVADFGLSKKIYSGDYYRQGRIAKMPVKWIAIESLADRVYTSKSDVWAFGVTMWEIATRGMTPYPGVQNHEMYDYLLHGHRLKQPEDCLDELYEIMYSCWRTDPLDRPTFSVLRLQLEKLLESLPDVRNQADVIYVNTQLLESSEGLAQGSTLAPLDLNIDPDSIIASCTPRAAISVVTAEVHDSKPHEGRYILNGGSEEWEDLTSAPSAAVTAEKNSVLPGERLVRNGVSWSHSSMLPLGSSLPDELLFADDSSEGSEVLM
Chain of KDR (phospho-KDR, VEGF165-stimulated HUVEC cells) (P35968 20-1356): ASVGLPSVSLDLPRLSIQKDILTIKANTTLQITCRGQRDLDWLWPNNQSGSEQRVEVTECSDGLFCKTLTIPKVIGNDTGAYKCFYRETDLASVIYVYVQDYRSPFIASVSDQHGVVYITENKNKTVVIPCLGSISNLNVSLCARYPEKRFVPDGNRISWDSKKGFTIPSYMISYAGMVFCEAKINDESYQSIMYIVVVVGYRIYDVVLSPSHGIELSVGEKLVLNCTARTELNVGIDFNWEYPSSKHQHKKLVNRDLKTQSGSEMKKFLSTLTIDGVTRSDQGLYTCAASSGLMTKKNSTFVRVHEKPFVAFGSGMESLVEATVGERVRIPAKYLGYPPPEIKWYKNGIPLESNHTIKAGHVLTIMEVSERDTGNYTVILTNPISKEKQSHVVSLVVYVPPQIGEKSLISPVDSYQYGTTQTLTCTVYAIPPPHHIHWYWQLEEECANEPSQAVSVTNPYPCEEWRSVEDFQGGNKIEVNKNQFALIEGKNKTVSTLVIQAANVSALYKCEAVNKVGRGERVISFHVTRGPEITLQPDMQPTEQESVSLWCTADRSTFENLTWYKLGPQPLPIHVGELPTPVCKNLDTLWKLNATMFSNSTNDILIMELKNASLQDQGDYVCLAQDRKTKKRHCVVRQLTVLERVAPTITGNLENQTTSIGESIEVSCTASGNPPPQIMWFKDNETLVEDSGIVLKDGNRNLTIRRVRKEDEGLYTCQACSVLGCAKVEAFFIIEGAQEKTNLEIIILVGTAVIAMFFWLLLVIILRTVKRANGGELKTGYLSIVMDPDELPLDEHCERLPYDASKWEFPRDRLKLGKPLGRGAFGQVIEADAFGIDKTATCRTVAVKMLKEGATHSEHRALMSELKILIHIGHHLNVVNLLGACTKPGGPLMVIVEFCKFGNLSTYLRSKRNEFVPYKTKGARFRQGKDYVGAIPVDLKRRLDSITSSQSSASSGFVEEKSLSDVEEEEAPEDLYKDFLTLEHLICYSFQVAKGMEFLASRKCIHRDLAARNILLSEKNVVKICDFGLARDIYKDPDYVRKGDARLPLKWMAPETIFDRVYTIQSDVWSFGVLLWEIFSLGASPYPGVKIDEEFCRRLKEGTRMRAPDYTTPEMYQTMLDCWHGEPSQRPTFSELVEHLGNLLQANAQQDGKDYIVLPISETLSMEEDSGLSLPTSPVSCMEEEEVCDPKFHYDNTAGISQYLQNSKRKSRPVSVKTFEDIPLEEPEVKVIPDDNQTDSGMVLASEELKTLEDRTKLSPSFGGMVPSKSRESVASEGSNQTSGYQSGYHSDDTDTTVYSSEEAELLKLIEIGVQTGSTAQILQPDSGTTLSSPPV

Regarding `COCCOc1nc2c(Oc3ccc(NC(=O)c4ccc(C)n(-c5ccc(F)cc5)c4=O)cc3F)ccnc2cc1OC` [Compound 227, N-[3-Fluoro-4-[[7-methoxy-6-(2-methoxyethoxy)-1,5-naphthyridin-4-yl]oxy]phenyl]-1-(4-fluorophenyl)-6-methyl-2-oxopyridine-3-carboxamide], the negative logarithm of the IC50 (pIC50) in assay [1], in assay [2], in assay [3] and in assay [4] was greater than 7.00 in each case.

With `COCCOc1nc2c(Oc3ccc(NC(=O)c4cn(C)c(CO)c(-c5ccc(F)cc5)c4=O)cc3F)ccnc2cc1OC` [Compound 228, N-[3-Fluoro-4-[[7-methoxy-6-(2-methoxyethoxy)-1,5-naphthyridin-4-yl]oxy]phenyl]-5-(4-fluorophenyl)-6-(hydroxymethyl)-1-methyl-4-oxopyridine-3-carboxamide], the pIC50 in assay [1] is 6.52 to 7.00; in assay [2], greater than 7.00; in assay [3], less than 6.52; in assay [4], greater than 7.00.

Turning to `COc1cc2nccc(Oc3ccc(NC(=O)c4ccc(C)n(-c5ccc(F)cc5)c4=O)cc3)c2nc1OC` [Compound 229, N-[4-[(6,7-Dimethoxy-1,5-naphthyridin-4-yl)oxy]phenyl]-1-(4-fluorophenyl)-6-methyl-2-oxopyridine-3-carboxamide], the pIC50 in assay [1], in assay [2], in assay [3] and in assay [4] was greater than 7.00 throughout.

On to `COc1ccc2nccc(Oc3ccc(NC(=O)c4n[nH]c(C)c(-c5ccc(F)cc5C)c4=O)cc3F)c2n1` [Compound 230, N-[3-Fluoro-4-[(6-methoxy-1,5-naphthyridin-4-yl)oxy]phenyl]-5-(4-fluoro-2-methylphenyl)-6-methyl-4-oxo-1H-pyridazine-3-carboxamide], for which the pIC50 in assay [1] is less than 6.52; in assay [2], greater than 7.00; in assay [3], 6.52 to 7.00; in assay [4], greater than 7.00.

As for `COc1ccc2nccc(Oc3ccc(NC(=O)c4cnc(CO)c(-c5ccc(F)cc5)c4O)cc3F)c2n1` [Compound 231, N-[3-Fluoro-4-[(6-methoxy-1,5-naphthyridin-4-yl)oxy]phenyl]-5-(4-fluorophenyl)-4-hydroxy-6-(hydroxymethyl)pyridine-3-carboxamide], the pIC50 in assay [1] is 6.52 to 7.00; in assay [2], greater than 7.00; in assay [3], greater than 7.00; in assay [4], greater than 7.00.

As to `COc1ccc2nccc(Oc3ccc(NC(=O)c4cnc(C)n(-c5ccc(F)cc5)c4=O)cc3F)c2n1` [Compound 232, N-[3-Fluoro-4-[(6-methoxy-1,5-naphthyridin-4-yl)oxy]phenyl]-1-(4-fluorophenyl)-2-methyl-6-oxopyrimidine-5-carboxamide], the pIC50 is less than 6.52 in assay [1], greater than 7.00 in assay [2], 6.52 to 7.00 in assay [3] and greater than 7.00 in assay [4].

Consider `COc1ccc2nccc(Oc3ccc(NC(=O)c4c(C)nc(C)n(-c5ccc(F)cc5)c4=O)cc3F)c2n1` [Compound 233, N-[3-Fluoro-4-[(6-methoxy-1,5-naphthyridin-4-yl)oxy]phenyl]-1-(4-fluorophenyl)-2,4-dimethyl-6-oxopyrimidine-5-carboxamide], for which the negative-log IC50 (pIC50) in assay [1] is greater than 7.00; in assay [2] it was 6.52 to 7.00; in assay [3] it was greater than 7.00; in assay [4], greater than 7.00.

As for `COc1ccc2nccc(Oc3ccc(NC(=O)c4c(C)ncn(-c5ccc(F)cc5)c4=O)cc3F)c2n1` [Compound 234, N-[3-Fluoro-4-[(6-methoxy-1,5-naphthyridin-4-yl)oxy]phenyl]-1-(4-fluorophenyl)-4-methyl-6-oxopyrimidine-5-carboxamide], the negative-log IC50 (pIC50) in assay [1] was less than 6.52; in assay [2] it was less than 6.52; in assay [3], 6.52 to 7.00; in assay [4], greater than 7.00.

For the compound `COc1cc2nccc(Oc3ccc(NC(=O)c4c(C)ncc(-c5ccc(F)cc5)c4O)cc3)c2nc1OC` [Compound 235, N-[4-[(6,7-Dimethoxy-1,5-naphthyridin-4-yl)oxy]phenyl]-5-(4-fluorophenyl)-4-hydroxy-2-methylpyridine-3-carboxamide], the negative logarithm of the IC50 (pIC50) in assay [1], in assay [2], in assay [3] and in assay [4] was greater than 7.00 each time.

Regarding `COc1cnc2c(Oc3ccc(NC(=O)c4c(C)ncc(-c5ccc(F)cc5)c4O)cc3)ccnc2c1` [Compound 236, 5-(4-Fluorophenyl)-4-hydroxy-N-[4-[(7-methoxy-1,5-naphthyridin-4-yl)oxy]phenyl]-2-methylpyridine-3-carboxamide], the pIC50 in assay [1], in assay [2], in assay [3] and in assay [4] was greater than 7.00 throughout.

Take `COc1cc2nccc(Oc3ccc(NC(=O)c4c(C)ncc(-c5ccc(F)cc5)c4O)cc3F)c2nc1OC` [Compound 237, N-[4-[(6,7-Dimethoxy-1,5-naphthyridin-4-yl)oxy]-3-fluorophenyl]-5-(4-fluorophenyl)-4-hydroxy-2-methylpyridine-3-carboxamide]: the negative-log IC50 (pIC50) in assay [1], in assay [2], in assay [3] and in assay [4] was greater than 7.00 throughout.

For `COc1cnc2c(Oc3ccc(NC(=O)c4c(C)n(C)cc(-c5ccc(F)cc5)c4=O)cc3F)ccnc2c1` [Compound 239, N-[3-Fluoro-4-[(7-methoxy-1,5-naphthyridin-4-yl)oxy]phenyl]-5-(4-fluorophenyl)-1,2-dimethyl-4-oxopyridine-3-carboxamide], the pIC50 is less than 6.52 in assay [1], greater than 7.00 in assay [2], less than 6.52 in assay [3] and greater than 7.00 in assay [4].

For the compound `CCn1cc(-c2ccc(F)cc2)c(=O)c(C(=O)Nc2ccc(Oc3ccnc4cc(OC)cnc34)c(F)c2)c1C` [Compound 240, 1-Ethyl-N-[3-fluoro-4-[(7-methoxy-1,5-naphthyridin-4-yl)oxy]phenyl]-5-(4-fluorophenyl)-2-methyl-4-oxopyridine-3-carboxamide], the negative-log IC50 (pIC50) was less than 6.52 in assay [1], greater than 7.00 in assay [2], less than 6.52 in assay [3] and greater than 7.00 in assay [4].

Take `COc1cnc2c(Oc3ccc(NC(=O)c4cnc(C(F)(F)F)c(-c5ccc(F)cc5)c4O)cc3F)ccnc2c1` [Compound 241, N-[3-Fluoro-4-[(7-methoxy-1,5-naphthyridin-4-yl)oxy]phenyl]-5-(4-fluorophenyl)-4-hydroxy-6-(trifluoromethyl)pyridine-3-carboxamide]: the pIC50 in assay [1] is less than 6.52; in assay [2], 6.52 to 7.00; in assay [3] it was less than 6.52; in assay [4] it was greater than 7.00.

For `COc1ccc2nccc(Oc3ccc(NC(=O)c4c(C)ncc(-c5ccc(F)cc5)c4O)cc3F)c2n1` [Compound 242, N-[3-Fluoro-4-[(6-methoxy-1,5-naphthyridin-4-yl)oxy]phenyl]-5-(4-fluorophenyl)-4-hydroxy-2-methylpyridine-3-carboxamide], the pIC50 in assay [1], in assay [2], in assay [3] and in assay [4] was greater than 7.00 throughout.

Turning to `COc1ccc2nccc(Oc3ccc(NC(=O)c4c(C)n(C)cc(-c5ccc(F)cc5)c4=O)cc3F)c2n1` [Compound 243, N-[3-Fluoro-4-[(6-methoxy-1,5-naphthyridin-4-yl)oxy]phenyl]-5-(4-fluorophenyl)-1,2-dimethyl-4-oxopyridine-3-carboxamide], the pIC50 in assay [1] is less than 6.52; in assay [2], less than 6.52; in assay [3], less than 6.52; in assay [4], greater than 7.00.

With `COc1cnc2c(Oc3ccc(NC(=O)c4n[nH]c(C)c(-c5ccc(F)cc5)c4=O)cc3)ccnc2c1` [Compound 245, 5-(4-Fluorophenyl)-N-[4-[(7-methoxy-1,5-naphthyridin-4-yl)oxy]phenyl]-6-methyl-4-oxo-1H-pyridazine-3-carboxamide], the negative logarithm of the IC50 (pIC50) in assay [1] is 6.52 to 7.00; in assay [2] it was greater than 7.00; in assay [3], greater than 7.00; in assay [4] it was greater than 7.00.

For `COc1cnc2c(Oc3ccc(NC(=O)c4n[nH]c(C)c(-c5ccc(F)cc5)c4=O)cc3F)ccnc2c1` [Compound 246, N-[3-Fluoro-4-[(7-methoxy-1,5-naphthyridin-4-yl)oxy]phenyl]-5-(4-fluorophenyl)-6-methyl-4-oxo-1H-pyridazine-3-carboxamide], the negative logarithm of the IC50 (pIC50) in assay [1], in assay [2], in assay [3] and in assay [4] was greater than 7.00 in each case.

The pIC50 is −log10 of the IC50, conventionally taken in molar units.

Source of the values: patent US12371428B2 (Exelixis, Inc., priority 2019, dated 2025).
